Where a SMILES comes first, the peptide text is derived from it. Bridges are numbered along the chain shown (N, C = ends). [ ]: non-standard residue; d: D form. The star is where a group is joined. d(aIle) = CC[C@H](C)[C@@H](N)C(=O)O; d(aThr) = C[C@@H](O)[C@@H](N)C(=O)O; Hexanoyl(5-Me) = CC(C)CCCC(=O)*; Orn = NCCC[C@H](N)C(=O)O; Dhb = C/C=C(\N)C(=O)O
How the values were obtained:
Type in all cases: cell-based, human
SK-BR-3 = assay: SRB colorimetric assay of cell growth and viability, SK-BR-3; details: 48 hours exposure
LoVo = assay: SRB colorimetric assay of cell growth and viability, LoVo; details: 48 hours exposure; for CC50: read-out: LC50 LOVO
DU-145 = assay: SRB colorimetric assay of cell growth and viability, DU-145; details: 48 hours exposure
HT-29 = assay: SRB colorimetric assay of cell growth and viability, HT-29; details: 48 hours exposure; for GI50: read-out: GI50 HT-29; for CC50: read-out: LC50 HT-29
IGROV-1 = assay: SRB colorimetric assay of cell growth and viability, IGROV-1; details: 48 hours exposure
K-562 = assay: SRB colorimetric assay of cell growth and viability, K-562; details: 48 hours exposure; for CC50: read-out: LC50 K-562
HeLa-APL = assay: SRB colorimetric assay of cell growth and viability, HeLa-APL; details: 48 hours exposure; for CC50: read-out: LC50 HELA-APL
LNCaP = assay: SRB colorimetric assay of cell growth and viability, LNCaP; details: 48 hours exposure; for GI50: read-out: GI50 LN-caP; for CC50: read-out: LC50 LN-caP
SK-MEL-28 = assay: SRB colorimetric assay of cell growth and viability, SK-MEL-28; details: 48 hours exposure; for CC50: read-out: LC50 MEL-28
IGROV-ET = assay: SRB colorimetric assay of cell growth and viability, IGROV-ET; details: 48 hours exposure; for CC50: read-out: LC50 IGROV-ET
HeLa = assay: SRB colorimetric assay of cell growth and viability, HeLa; details: 48 hours exposure; for CC50: read-out: LC50 HELA
PANC-1 = assay: SRB colorimetric assay of cell growth and viability, PANC-1; details: 48 hours exposure; for CC50: read-out: LC50 PANC-1
A-549 = assay: SRB colorimetric assay of cell growth and viability, A-549; details: 48 hours exposure; for GI50: read-out: GI50 A-549; for CC50: read-out: LC50 A-549

Compound	GI50 (SK-BR-3)	LC50 (SK-BR-3)	TGI SK-BR-3 (SK-BR-3)	GI50 (LoVo)	TGI LOVO (LoVo)	CC50 (LoVo)	GI50 (DU-145)	LC50 (concentration causing 50% net cell kill) (DU-145)	TGI DU-145 (DU-145)	TGI HT-29 (HT-29)	GI50 (HT-29)	CC50 (HT-29)	GI50 (IGROV-1)	LC50 (concentration causing 50% net cell killing) (IGROV-1)	TGI IGROV (IGROV-1)	GI50 (K-562)	TGI K-562 (K-562)	CC50 (K-562)	GI50 (HeLa-APL)	TGI HELA-APL (HeLa-APL)	further results
C/C=C1\NC(=O)[C@H](Cc2ccccc2)NC(=O)[C@@H](C(C)C)NC(=O)[C@@H]([C@@H](C)CC)NC(=O)[C@H](NC(=O)[C@H](NC(=O)[C@H](CCCN)NC(=O)[C@H]2CCCN2C(=O)[C@H](NC(=O)[C@@H](NC(=O)[C@@H](NC(=O)[C@H](NC(=O)CCCNC(=N)N)C(C)C)[C@@H](C)O)C(C)C)C(C)C)[C@@H](C)CC)[C@@H](C)OC(=O)[C@H](C(C)C)NC1=O [Compound 29, [4-GuBut^14]-KF]	6.7 µM	6.7 µM	6.70E−06 Molar	5.45 µM	6.70E−06 Molar	6.7 µM	6.7 µM	6.7 µM	6.70E−06 Molar	6.70E−06 Molar	6.7 µM	6.7 µM	6.7 µM	6.7 µM	6.70E−06 Molar	6.7 µM	6.70E−06 Molar	6.7 µM	6.7 µM	6.70E−06 Molar	CC50 (HeLa-APL): 6.7 µM; TGI LN-caP (LNCaP): 6.70E−06 Molar; GI50 (LNCaP): 3.91 µM; CC50 (LNCaP): 6.7 µM; GI50 (SK-MEL-28): 6.7 µM; TGI MEL-28 (SK-MEL-28): 6.70E−06 Molar; CC50 (SK-MEL-28): 6.7 µM; GI50 (IGROV-ET): 6.7 µM; TGI IGROV-ET (IGROV-ET): 6.70E−06 Molar; CC50 (IGROV-ET): 6.7 µM; GI50 (HeLa): 6.7 µM; TGI HELA (HeLa): 6.70E−06 Molar; CC50 (HeLa): 6.7 µM; GI50 (PANC-1): 6.7 µM; TGI PANC-1 (PANC-1): 6.70E−06 Molar; CC50 (PANC-1): 6.7 µM; TGI A-549 (A-549): 6.70E−06 Molar; GI50 (A-549): 6.7 µM; CC50 (A-549): 6.7 µM
C/C=C1\NC(=O)[C@H](Cc2ccccc2)NC(=O)[C@@H](C(C)C)NC(=O)[C@@H]([C@@H](C)CC)NC(=O)[C@H](NC(=O)[C@H](NC(=O)[C@H](CCCN)NC(=O)[C@H]2CCCN2C(=O)[C@H](NC(=O)CNC(=O)[C@@H](NC(=O)[C@H](NC(=O)CCCC(C)C)C(C)C)[C@@H](C)O)C(C)C)[C@@H](C)CC)[C@@H](C)OC(=O)[C@H](C(C)C)NC1=O [Compound 42, [Gly^11]-KF] ({Hexanoyl(5-Me)}-[dV]TG[dV][dP][Orn][d(aIle)][d(aThr)][d(aIle)][dV]F[Dhb]V; ester 8-C)	6.96 µM	6.96 µM	6.96E−06 Molar	3.87 µM	6.96E−06 Molar	6.96 µM	6.96 µM	6.96 µM	6.96E−06 Molar	6.96E−06 Molar	6.96 µM	6.96 µM	4.61 µM	6.96 µM	6.96E−06 Molar	1.82 µM	4.37E−06 Molar	6.96 µM	6.96 µM	6.96E−06 Molar	CC50 (HeLa-APL): 6.96 µM; TGI LN-caP (LNCaP): 6.96E−06 Molar; GI50 (LNCaP): 3.03 µM; CC50 (LNCaP): 6.96 µM; GI50 (SK-MEL-28): 6.96 µM; TGI MEL-28 (SK-MEL-28): 6.96E−06 Molar; CC50 (SK-MEL-28): 6.96 µM; GI50 (IGROV-ET): 6.96 µM; TGI IGROV-ET (IGROV-ET): 6.96E−06 Molar; CC50 (IGROV-ET): 6.96 µM; GI50 (HeLa): 6.96 µM; TGI HELA (HeLa): 6.96E−06 Molar; CC50 (HeLa): 6.96 µM; GI50 (PANC-1): 5.08 µM; TGI PANC-1 (PANC-1): 6.96E−06 Molar; CC50 (PANC-1): 6.96 µM; TGI A-549 (A-549): 6.96E−06 Molar; GI50 (A-549): 6.96 µM; CC50 (A-549): 6.96 µM
C/C=C1\NC(=O)[C@H](Cc2ccccc2)NC(=O)[C@@H](C(C)C)NC(=O)[C@@H]([C@@H](C)CC)NC(=O)[C@H](NC(=O)[C@H](NC(=O)[C@H](CCCN)NC(=O)[C@H]2CCCN2C(=O)[C@H](NC(=O)[C@H](Cc2ccccc2)NC(=O)[C@@H](NC(=O)[C@H](NC(=O)CCCC(C)C)C(C)C)[C@@H](C)O)C(C)C)[C@@H](C)CC)[C@@H](C)OC(=O)[C@H](C(C)C)NC1=O [Compound 43, [Phe^11]-KF] ({Hexanoyl(5-Me)}-[dV]TF[dV][dP][Orn][d(aIle)][d(aThr)][d(aIle)][dV]F[Dhb]V; ester 8-C)	0.119 µM	0.634 µM	2.75E−07 Molar	0.105 µM	2.22E−07 Molar	0.471 µM	0.476 µM	3.22 µM	1.34E−06 Molar	2.73E−07 Molar	0.141 µM	0.531 µM	0.241 µM	3.68 µM	7.67E−07 Molar	1.23 µM	2.18E−06 Molar	3.85 µM	0.793 µM	1.77E−06 Molar	CC50 (HeLa-APL): 3.93 µM; TGI LN-caP (LNCaP): 1.97E−06 Molar; GI50 (LNCaP): 0.852 µM; CC50 (LNCaP): 4.55 µM; GI50 (SK-MEL-28): 0.78 µM; TGI MEL-28 (SK-MEL-28): 1.66E−06 Molar; CC50 (SK-MEL-28): 3.57 µM; GI50 (IGROV-ET): 0.233 µM; TGI IGROV-ET (IGROV-ET): 6.28E−07 Molar; CC50 (IGROV-ET): 2.53 µM; GI50 (HeLa): 0.397 µM; TGI HELA (HeLa): 1.32E−06 Molar; CC50 (HeLa): 3.95 µM; GI50 (PANC-1): 1.79 µM; TGI PANC-1 (PANC-1): 4.86E−06 Molar; CC50 (PANC-1): 6.55 µM; TGI A-549 (A-549): 1.40E−06 Molar; GI50 (A-549): 0.521 µM; CC50 (A-549): 3.41 µM
C/C=C1\NC(=O)[C@H](Cc2ccccc2)NC(=O)[C@@H](C(C)C)NC(=O)[C@@H]([C@@H](C)CC)NC(=O)[C@H](NC(=O)[C@H](NC(=O)[C@H](CCCN)NC(=O)[C@H]2CCCN2C(=O)[C@H](NC(=O)[C@H](C)NC(=O)[C@@H](NC(=O)[C@H](NC(=O)CCCC(C)C)C(C)C)[C@@H](C)O)C(C)C)[C@@H](C)CC)[C@@H](C)OC(=O)[C@H](C(C)C)NC1=O [Compound 44, [Ala^11]-KF] ({Hexanoyl(5-Me)}-[dV]TA[dV][dP][Orn][d(aIle)][d(aThr)][d(aIle)][dV]F[Dhb]V; ester 8-C)	1.19 µM	5.3 µM	2.52E−06 Molar	0.973 µM	2.03E−06 Molar	4.23 µM	3.03 µM	6.9 µM	6.90E−06 Molar	2.61E−06 Molar	1.34 µM	5.08 µM	1.43 µM	5.72 µM	2.86E−06 Molar	3.06 µM	6.90E−06 Molar	6.9 µM	3.18 µM	6.90E−06 Molar	CC50 (HeLa-APL): 6.9 µM; GI50 (LNCaP): 2.78 µM; CC50 (LNCaP): 6.9 µM; GI50 (SK-MEL-28): 3.69 µM; TGI MEL-28 (SK-MEL-28): 6.90E−06 Molar; CC50 (SK-MEL-28): 6.9 µM; GI50 (IGROV-ET): 1.5 µM; TGI IGROV-ET (IGROV-ET): 2.95E−06 Molar; CC50 (IGROV-ET): 5.77 µM; GI50 (HeLa): 2.85 µM; TGI HELA (HeLa): 6.90E−06 Molar; CC50 (HeLa): 6.9 µM; GI50 (PANC-1): 6.9 µM; TGI PANC-1 (PANC-1): 6.90E−06 Molar; CC50 (PANC-1): 6.9 µM; TGI A-549 (A-549): 6.90E−06 Molar; GI50 (A-549): 2.69 µM; CC50 (A-549): 6.9 µM
C/C=C1\NC(=O)[C@H](Cc2ccccc2)NC(=O)[C@@H](C(C)C)NC(=O)[C@@H]([C@@H](C)CC)NC(=O)[C@H](NC(=O)[C@H](NC(=O)[C@H](CCCN)NC(=O)[C@H]2CCCN2C(=O)[C@H](NC(=O)[C@H](CC(C)C)NC(=O)[C@@H](NC(=O)[C@H](NC(=O)CCCC(C)C)C(C)C)[C@@H](C)O)C(C)C)[C@@H](C)CC)[C@@H](C)OC(=O)[C@H](C(C)C)NC1=O [Compound 45, [Leu^11]-KF] ({Hexanoyl(5-Me)}-[dV]TL[dV][dP][Orn][d(aIle)][d(aThr)][d(aIle)][dV]F[Dhb]V; ester 8-C)	0.163 µM	1.68 µM	4.10E−07 Molar	0.113 µM	2.32E−07 Molar	0.476 µM	0.731 µM	3.54 µM	1.61E−06 Molar	1.17E−06 Molar	0.316 µM	3.66 µM	0.332 µM	4.02 µM	1.23E−06 Molar	1.49 µM	3.10E−06 Molar	≥ 6.4 µM	0.912 µM	1.94E−06 Molar	CC50 (HeLa-APL): 4.13 µM; TGI LN-caP (LNCaP): 2.35E−06 Molar; GI50 (LNCaP): 1.02 µM; CC50 (LNCaP): 5.44 µM; GI50 (SK-MEL-28): 1.03 µM; TGI MEL-28 (SK-MEL-28): 2.05E−06 Molar; CC50 (SK-MEL-28): 4.11 µM; GI50 (IGROV-ET): 0.421 µM; TGI IGROV-ET (IGROV-ET): 1.30E−06 Molar; CC50 (IGROV-ET): 3.69 µM; GI50 (HeLa): 0.938 µM; TGI HELA (HeLa): 2.16E−06 Molar; CC50 (HeLa): 4.98 µM; GI50 (PANC-1): 2.32 µM; TGI PANC-1 (PANC-1): 6.70E−06 Molar; CC50 (PANC-1): 6.7 µM; TGI A-549 (A-549): 1.90E−06 Molar; GI50 (A-549): 0.925 µM; CC50 (A-549): 3.93 µM

— US20070117743A1, “New antitumoral compounds” (priority 2003, published 2007)
